Test: method code SF-AS, from DOI: 10.1002/ardp.19893220504, PMID: 2569302
Conditions: pH 7.4

Row | Compound | logD
1 | COc1ccc2c(=O)c(C)c(-c3ccc(C)cc3)oc2c1CN1CCOCC1 | 3.71
2 | COc1ccc2c(=O)c(C)c(-c3ccccc3)oc2c1CN1CCCCC1 | 2.63
3 | COc1ccc2c(=O)c(C)c(-c3ccc(C)cc3)oc2c1CN1CCCC1 | 2.5
4 | CCN(CC)Cc1c(OC)ccc2c(=O)c(C)c(-c3ccc(F)cc3)oc12 | 1.99
5 | COc1ccc2c(=O)c(C)c(-c3ccc(F)cc3)oc2c1CN(C)C | 1.97
6 | COc1ccc2c(=O)c(C)c(-c3ccc(Cl)cc3)oc2c1CN(C)C | 2.62
7 | COc1ccc2c(=O)c(C)c(-c3ccc(F)cc3)oc2c1CN1CCCC1 | 2.13
8 | COc1ccc2c(=O)c(C)c(-c3ccc(F)cc3)oc2c1CN1CCOCC1 | 3.26
9 | COc1ccc2c(=O)c(C)c(-c3ccc(Cl)cc3)oc2c1CN1CCOCC1 | 3.94
10 | COc1ccc2c(=O)c(C)c(-c3ccc(F)cc3)oc2c1CN1CCCCC1 | 2.71
11 | COc1ccc2c(=O)c(C)c(-c3ccccc3)oc2c1CN1CCOCC1 | 3.25

Next, values leading:

Row | logD | Compound
12 | 1.93 | COc1ccc2c(=O)c(C)c(-c3ccccc3)oc2c1CN(C)C
13 | 2.53 | COc1ccc2c(=O)c(C)c(-c3ccc([N+](=O)[O-])cc3)oc2c1CN1CCCCC1
14 | 1.83 | COc1ccc2c(=O)c(C)c(-c3ccc([N+](=O)[O-])cc3)oc2c1CN1CCCC1
15 | 1.7 | CCN(CC)Cc1c(OC)ccc2c(=O)c(C)c(-c3ccc([N+](=O)[O-])cc3)oc12
16 | 3.13 | COc1ccc2c(=O)c(C)c(-c3ccc(C)cc3)oc2c1CN1CCCCC1
17 | 2.46 | CCN(CC)Cc1c(OC)ccc2c(=O)c(C)c(-c3ccc(C)cc3)oc12
18 | 3.46 | COc1ccc2c(=O)c(C)c(-c3ccc(Cl)cc3)oc2c1CN1CCCCC1
19 | 1.73 | COc1ccc2c(=O)c(C)c(-c3ccc([N+](=O)[O-])cc3)oc2c1CN(C)C
20 | 2.41 | COc1ccc2c(=O)c(C)c(-c3ccc(C)cc3)oc2c1CN(C)C
21 | 1.99 | CCN(CC)Cc1c(OC)ccc2c(=O)c(C)c(-c3ccccc3)oc12
22 | 3.02 | COc1ccc2c(=O)c(C)c(-c3ccc([N+](=O)[O-])cc3)oc2c1CN1CCOCC1
23 | 2.75 | COc1ccc2c(=O)c(C)c(-c3ccc(Cl)cc3)oc2c1CN1CCCC1
24 | 2.66 | CCN(CC)Cc1c(OC)ccc2c(=O)c(C)c(-c3ccc(Cl)cc3)oc12

From the SangsterLogP compilation
